From patent publication US12435046B2, “Alkynyl quinazoline compounds” (Black Diamond Therapeutics, Inc., priority 2019, dated 2025)

Experiments:
EGFR NPH = target: T1, EGFR NPH (Homo sapiens, UniProt P00533, INS773NPH); test: BaF3 cell proliferation assay (CellTiterGlo), EGFR NPH; type: cell-based; details: Table A; BaF3 cells, 3 days
T1 construct: expressed in transfected cells; host or cells: BaF3 (murine pro-B) cells, retroviral transduction with pMXs-IRES-Blasticidin
Experimental: (§1) Retroviral Production: EGFR mutants were subcloned into pMXs-IRES-Blasticidin (RTV-016, Cell Biolabs, San Diego, CA). Retroviral expression vector retrovirus was produced by transient transfection of HEK 293T cells with the retroviral EGFR mutant expression vector pMXs-IRES-Blasticidin (RTV-016, Cell Biolabs), pCMV-Gag-Pol vector and pCMV-VSV-G-Envelope vector. Briefly, HEK 293T/17 cells were plated in 100 mm collagen coated plate (354450, Corning Life Sciences, Tewksbury, MA) (4×10^5 per plate) and incubated overnight. The next day, retroviral plasmids (3 ng of EGFR mutant, 1.0 ng of pCMV-Gag-Pol and 0.5 ng pCMV-VSV-G) were mixed in 500 n1 of Optimem (31985, Life Technologies). The mixture was incubated at room temperature for 5 min and then added to Optimem containing transfection reagent Lipofectamine (11668, Invitrogen) and incubated for 20 minutes. Mixture was then added dropwise to HEK 293T cells. The next day the medium was replaced with fresh culture medium and retrovirus was harvested @ 24 and 48 hrs.
(§2) Generation of EGFR mutant stable cell lines: BaF3 cells (1.5E5 cells) were infected with 1 ml of viral supernatant supplemented with 8 ng/ml polybrene by centrifuging for 30 min at 1000 rpm. Cells were placed in a 37° C. incubator overnight. Cells were then spun for 5 minutes to pellet the cells. Supernatant was removed and cells re-infected a fresh 1 ml of viral supernatant supplemented with 8 ng/ml polybrene by centrifuging for 30 min at 1000 rpm. Cells were placed in 37° C. incubator overnight. Cells were then maintained in RPMI containing 10% Heat Inactivated FBS, 2% L-glutamine containing 10 ng/ml IL-3. After 48 hours cells were selected for retroviral infection in 10 […] for one week. Blasticidin resistant populations were washed twice in phosphate buffered saline before plating in media lacking IL-3 to select for IL-3 independent growth.
(§3) Assay for cell proliferation: BaF3 cell lines were resuspended at 1.3E5 c/ml in RPMI containing 10% Heat Inactivated FBS, 2% L-glutamine and 1% Pen/Strep and dispensed in triplicate (17.5E4 c/well) into 96 well plates. To determine the effect of drug on cell proliferation, cells incubated for 3 days in the presence of vehicle control or test drug at varying concentrations. Inhibition of cell growth was determined by luminescent quantification of intracellular ATP content using CellTiterGlo (Promega), according to the protocol provided by the manufacturer. Comparison of cell number on day 0 versus 72 hours post drug treatment was used to plot dose-response curves. The number of viable cells was determined and normalized to vehicle-treated controls. Inhibition of proliferation, relative to vehicle-treated controls was expressed as a fraction of 1 and graphed using PRISM® software (Graphpad Software, San Diego, CA). EC50 values were determined with the same application.

EGFR SVD = target: T2, EGFR SVD (Homo sapiens, UniProt P00533, INS770SVD); test: BaF3 cell proliferation assay (CellTiterGlo), EGFR SVD; type: cell-based; details: Table A; BaF3 cells, 3 days
T2 construct: expressed in transfected cells; host or cells: BaF3 (murine pro-B) cells, retroviral transduction with pMXs-IRES-Blasticidin
Experimental: as §1, §2, §3

HER2 S310F = target: T3, HER2 S310F (Homo sapiens, UniProt P04626, S310F); test: BaF3 cell proliferation assay (CellTiterGlo), HER2 S310F; type: cell-based; details: Table A; BaF3 cells, 3 days
T3 construct: expressed in transfected cells; host or cells: BaF3 (murine pro-B) cells

EGFR V3 = target: T4, EGFR V3 (Homo sapiens, UniProt P00533, DELINS30-297G); test: BaF3 cell proliferation assay (CellTiterGlo), EGFR V3; type: cell-based; details: BaF3 cells, 3 days
T4 construct: expressed in transfected cells; host or cells: BaF3 (murine pro-B) cells, retroviral transduction with pMXs-IRES-Blasticidin
Summary of the method: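 BaF3 cells made IL-3-independent by retroviral expression of each EGFR or HER2 mutant were treated in triplicate with compound for 72 h. Viability was read by CellTiterGlo ATP luminescence and normalised to vehicle, and EC50 was fitted from dose-response curves.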

EGFR wt = target: T5, EGFR wt (Homo sapiens, UniProt P00533); test: BaF3 cell proliferation assay (CellTiterGlo), EGFR wt; type: cell-based; details: BaF3 cells, 3 days
T5 construct: expressed in transfected cells; host or cells: BaF3 (murine pro-B) cells, retroviral transduction with pMXs-IRES-Blasticidin
Summary of the method: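 BaF3 cells engineered by retroviral transduction to express EGFR and selected for blasticidin resistance and IL-3 independent growth were suspended at 1.3E5 c/ml in RPMI with 10% heat inactivated FBS, 2% L-glutamine and 1% Pen/Strep. They were plated in triplicate in 96 well plates and exposed to vehicle or varying drug concentrations for 3 days. Viability was quantified by CellTiterGlo ATP luminescence, normalized to vehicle, and curves fitted in PRISM.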

HER2 YVMA = target: T6, HER2 YVMA (Homo sapiens, UniProt P04626, INS775YVMA); test: BaF3 cell proliferation assay (CellTiterGlo), HER2 YVMA; type: cell-based; details: Table A; BaF3 cells, 3 days
T6 construct: expressed in transfected cells; host or cells: BaF3 (murine pro-B) cells

GBM tumors = details: phase 2 study, GBM patients, erlotinib in combination with radiation and temozolomide; cited from earlier work
EGFR G598V = target: T7, EGFR G598V (Homo sapiens, UniProt P00533, G598V); test: BaF3 cell proliferation assay (CellTiterGlo), EGFR G598V; type: cell-based; details: Table B; BaF3 cells, 3 days
T7 construct: expressed in transfected cells; host or cells: BaF3 (murine pro-B) cells, retroviral transduction with pMXs-IRES-Blasticidin
Experimental: as §1, with “The mixture was incubated at room temperature for 5 min and then added to Optimem containing transfection reagent Lipofectamine (11668, Invitrogen) and incubated for 20 minutes. Mixture was then added dropwise to HEK 293T cells. The next day the medium was replaced with fresh culture medium and retrovirus was harvested @ 24 and 48 hrs.” left out
as §3, with “To determine the effect of drug on cell proliferation, cells incubated for 3 days in the presence of vehicle control or test drug at varying concentrations.” left out, “Comparison of cell number on day 0 versus 72 hours post drug treatment was used to plot dose-response curves.” left out

EGFR V6 = target: T8, EGFR V6 (Homo sapiens, UniProt P00533, DEL434-544); test: BaF3 cell proliferation assay (CellTiterGlo), EGFR V6; type: cell-based; details: Table B; BaF3 cells, 3 days
T8 construct: expressed in transfected cells; host or cells: BaF3 (murine pro-B) cells, retroviral transduction with pMXs-IRES-Blasticidin
Experimental: as §1, with “The mixture was incubated at room temperature for 5 min and then added to Optimem containing transfection reagent Lipofectamine (11668, Invitrogen) and incubated for 20 minutes. Mixture was then added dropwise to HEK 293T cells. The next day the medium was replaced with fresh culture medium and retrovirus was harvested @ 24 and 48 hrs.” left out
as §3, with “To determine the effect of drug on cell proliferation, cells incubated for 3 days in the presence of vehicle control or test drug at varying concentrations.” left out, “Comparison of cell number on day 0 versus 72 hours post drug treatment was used to plot dose-response curves.” left out

EGFR A289V = target: T9, EGFR A289V (Homo sapiens, UniProt P00533, A289V); test: BaF3 cell proliferation assay (CellTiterGlo), EGFR A289V; type: cell-based; details: Table B; BaF3 cells, 3 days
T9 construct: expressed in transfected cells; host or cells: BaF3 (murine pro-B) cells, retroviral transduction with pMXs-IRES-Blasticidin
Experimental: as §1, with “The mixture was incubated at room temperature for 5 min and then added to Optimem containing transfection reagent Lipofectamine (11668, Invitrogen) and incubated for 20 minutes. Mixture was then added dropwise to HEK 293T cells. The next day the medium was replaced with fresh culture medium and retrovirus was harvested @ 24 and 48 hrs.” left out
as §3, with “To determine the effect of drug on cell proliferation, cells incubated for 3 days in the presence of vehicle control or test drug at varying concentrations.” left out, “Comparison of cell number on day 0 versus 72 hours post drug treatment was used to plot dose-response curves.” left out

EGFR V2 = target: T10, EGFR V2 (Homo sapiens, UniProt P00533, DEL545-627); test: BaF3 cell proliferation assay (CellTiterGlo), EGFR V2; type: cell-based; details: Table B; BaF3 cells, 3 days
T10 construct: expressed in transfected cells; host or cells: BaF3 (murine pro-B) cells, retroviral transduction with pMXs-IRES-Blasticidin
Experimental: as §1, with “The mixture was incubated at room temperature for 5 min and then added to Optimem containing transfection reagent Lipofectamine (11668, Invitrogen) and incubated for 20 minutes. Mixture was then added dropwise to HEK 293T cells. The next day the medium was replaced with fresh culture medium and retrovirus was harvested @ 24 and 48 hrs.” left out
as §3, with “To determine the effect of drug on cell proliferation, cells incubated for 3 days in the presence of vehicle control or test drug at varying concentrations.” left out, “Comparison of cell number on day 0 versus 72 hours post drug treatment was used to plot dose-response curves.” left out

T5 sequence (P00533 25-1210): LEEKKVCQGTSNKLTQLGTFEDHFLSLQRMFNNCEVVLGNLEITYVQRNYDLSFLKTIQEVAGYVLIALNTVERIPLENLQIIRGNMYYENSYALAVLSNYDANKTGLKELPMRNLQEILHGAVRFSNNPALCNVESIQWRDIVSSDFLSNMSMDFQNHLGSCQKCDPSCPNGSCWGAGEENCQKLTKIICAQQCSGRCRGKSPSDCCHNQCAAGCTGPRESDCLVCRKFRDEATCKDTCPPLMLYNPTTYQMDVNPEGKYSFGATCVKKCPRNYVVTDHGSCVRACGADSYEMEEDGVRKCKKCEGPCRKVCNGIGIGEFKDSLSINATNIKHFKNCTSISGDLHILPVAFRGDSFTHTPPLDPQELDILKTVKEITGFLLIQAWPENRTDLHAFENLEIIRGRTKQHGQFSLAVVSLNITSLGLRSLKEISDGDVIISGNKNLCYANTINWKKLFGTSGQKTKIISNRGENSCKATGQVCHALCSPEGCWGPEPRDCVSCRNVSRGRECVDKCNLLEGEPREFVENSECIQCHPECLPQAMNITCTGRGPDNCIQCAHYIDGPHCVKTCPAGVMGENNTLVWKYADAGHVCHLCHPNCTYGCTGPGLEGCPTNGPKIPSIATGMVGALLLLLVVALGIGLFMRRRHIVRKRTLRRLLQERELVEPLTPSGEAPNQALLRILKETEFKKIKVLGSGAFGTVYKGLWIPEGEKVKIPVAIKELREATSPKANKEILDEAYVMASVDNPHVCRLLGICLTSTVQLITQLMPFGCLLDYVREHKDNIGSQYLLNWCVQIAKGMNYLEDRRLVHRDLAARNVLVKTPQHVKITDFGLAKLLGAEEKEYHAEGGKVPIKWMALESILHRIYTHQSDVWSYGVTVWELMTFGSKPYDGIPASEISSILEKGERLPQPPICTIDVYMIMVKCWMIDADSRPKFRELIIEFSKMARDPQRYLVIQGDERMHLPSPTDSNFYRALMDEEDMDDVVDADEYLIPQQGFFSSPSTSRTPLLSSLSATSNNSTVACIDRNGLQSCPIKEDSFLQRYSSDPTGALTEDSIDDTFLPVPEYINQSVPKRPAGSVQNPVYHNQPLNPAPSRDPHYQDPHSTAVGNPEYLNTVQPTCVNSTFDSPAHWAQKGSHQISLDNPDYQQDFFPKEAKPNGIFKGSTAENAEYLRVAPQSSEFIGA
T6 sequence (P04626 with tags, fused parts or gaps INS775YVMA): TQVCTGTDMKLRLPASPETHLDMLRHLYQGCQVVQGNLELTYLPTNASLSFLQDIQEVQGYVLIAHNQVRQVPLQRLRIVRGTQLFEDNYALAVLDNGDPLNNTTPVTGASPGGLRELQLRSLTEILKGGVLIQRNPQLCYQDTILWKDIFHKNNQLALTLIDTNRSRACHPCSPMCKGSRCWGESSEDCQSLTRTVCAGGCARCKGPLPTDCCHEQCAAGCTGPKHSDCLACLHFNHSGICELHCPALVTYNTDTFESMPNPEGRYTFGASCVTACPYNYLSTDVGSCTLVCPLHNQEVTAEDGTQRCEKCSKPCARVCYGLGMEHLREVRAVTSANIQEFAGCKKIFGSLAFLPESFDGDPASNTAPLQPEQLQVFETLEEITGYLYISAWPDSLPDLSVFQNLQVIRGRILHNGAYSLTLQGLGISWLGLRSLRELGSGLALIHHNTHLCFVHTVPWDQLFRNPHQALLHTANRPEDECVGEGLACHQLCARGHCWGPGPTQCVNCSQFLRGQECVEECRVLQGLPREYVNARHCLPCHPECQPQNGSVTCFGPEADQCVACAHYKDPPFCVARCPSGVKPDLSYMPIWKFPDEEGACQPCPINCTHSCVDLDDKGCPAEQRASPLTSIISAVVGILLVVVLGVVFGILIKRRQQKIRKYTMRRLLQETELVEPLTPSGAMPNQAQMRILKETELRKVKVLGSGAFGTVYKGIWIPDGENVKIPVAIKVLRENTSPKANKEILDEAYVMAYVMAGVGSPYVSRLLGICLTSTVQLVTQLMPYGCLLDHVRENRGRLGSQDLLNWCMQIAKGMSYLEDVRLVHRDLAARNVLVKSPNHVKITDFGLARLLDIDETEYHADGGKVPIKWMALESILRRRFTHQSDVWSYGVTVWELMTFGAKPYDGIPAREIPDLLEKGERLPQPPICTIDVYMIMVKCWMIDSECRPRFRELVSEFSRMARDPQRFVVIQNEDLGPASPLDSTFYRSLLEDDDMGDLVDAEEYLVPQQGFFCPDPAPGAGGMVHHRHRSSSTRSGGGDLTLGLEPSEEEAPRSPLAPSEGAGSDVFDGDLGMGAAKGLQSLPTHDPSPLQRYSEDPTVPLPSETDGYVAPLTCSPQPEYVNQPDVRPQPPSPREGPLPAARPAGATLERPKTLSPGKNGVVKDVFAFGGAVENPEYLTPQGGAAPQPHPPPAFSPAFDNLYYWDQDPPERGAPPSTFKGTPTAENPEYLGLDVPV
T4 sequence (P00533 with tags, fused parts or gaps DELINS30-297G): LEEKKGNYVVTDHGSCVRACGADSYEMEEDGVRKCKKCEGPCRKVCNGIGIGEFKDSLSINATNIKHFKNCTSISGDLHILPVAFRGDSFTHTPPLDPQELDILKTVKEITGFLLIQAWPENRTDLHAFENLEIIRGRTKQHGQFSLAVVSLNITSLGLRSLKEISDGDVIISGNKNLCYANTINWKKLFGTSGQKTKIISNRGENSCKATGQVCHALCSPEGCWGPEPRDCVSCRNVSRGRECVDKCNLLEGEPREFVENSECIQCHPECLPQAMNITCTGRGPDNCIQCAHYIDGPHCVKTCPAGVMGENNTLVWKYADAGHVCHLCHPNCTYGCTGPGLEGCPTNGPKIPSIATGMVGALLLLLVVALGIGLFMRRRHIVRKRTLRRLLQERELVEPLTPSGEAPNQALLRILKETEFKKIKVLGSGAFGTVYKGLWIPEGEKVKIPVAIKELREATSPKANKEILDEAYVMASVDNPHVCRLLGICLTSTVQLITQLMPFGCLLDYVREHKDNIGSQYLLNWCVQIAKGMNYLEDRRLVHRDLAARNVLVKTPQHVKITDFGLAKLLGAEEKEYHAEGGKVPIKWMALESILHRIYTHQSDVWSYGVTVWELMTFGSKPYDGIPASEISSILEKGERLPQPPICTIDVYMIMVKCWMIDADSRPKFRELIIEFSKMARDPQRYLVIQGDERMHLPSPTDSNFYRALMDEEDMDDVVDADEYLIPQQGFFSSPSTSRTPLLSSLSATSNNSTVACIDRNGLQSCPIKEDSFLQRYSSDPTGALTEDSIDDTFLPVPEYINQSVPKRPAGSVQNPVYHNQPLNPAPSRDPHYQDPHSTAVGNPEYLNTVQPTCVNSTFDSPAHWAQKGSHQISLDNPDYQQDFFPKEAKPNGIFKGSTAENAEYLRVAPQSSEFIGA
T3 sequence (P04626 23-1255 S310F): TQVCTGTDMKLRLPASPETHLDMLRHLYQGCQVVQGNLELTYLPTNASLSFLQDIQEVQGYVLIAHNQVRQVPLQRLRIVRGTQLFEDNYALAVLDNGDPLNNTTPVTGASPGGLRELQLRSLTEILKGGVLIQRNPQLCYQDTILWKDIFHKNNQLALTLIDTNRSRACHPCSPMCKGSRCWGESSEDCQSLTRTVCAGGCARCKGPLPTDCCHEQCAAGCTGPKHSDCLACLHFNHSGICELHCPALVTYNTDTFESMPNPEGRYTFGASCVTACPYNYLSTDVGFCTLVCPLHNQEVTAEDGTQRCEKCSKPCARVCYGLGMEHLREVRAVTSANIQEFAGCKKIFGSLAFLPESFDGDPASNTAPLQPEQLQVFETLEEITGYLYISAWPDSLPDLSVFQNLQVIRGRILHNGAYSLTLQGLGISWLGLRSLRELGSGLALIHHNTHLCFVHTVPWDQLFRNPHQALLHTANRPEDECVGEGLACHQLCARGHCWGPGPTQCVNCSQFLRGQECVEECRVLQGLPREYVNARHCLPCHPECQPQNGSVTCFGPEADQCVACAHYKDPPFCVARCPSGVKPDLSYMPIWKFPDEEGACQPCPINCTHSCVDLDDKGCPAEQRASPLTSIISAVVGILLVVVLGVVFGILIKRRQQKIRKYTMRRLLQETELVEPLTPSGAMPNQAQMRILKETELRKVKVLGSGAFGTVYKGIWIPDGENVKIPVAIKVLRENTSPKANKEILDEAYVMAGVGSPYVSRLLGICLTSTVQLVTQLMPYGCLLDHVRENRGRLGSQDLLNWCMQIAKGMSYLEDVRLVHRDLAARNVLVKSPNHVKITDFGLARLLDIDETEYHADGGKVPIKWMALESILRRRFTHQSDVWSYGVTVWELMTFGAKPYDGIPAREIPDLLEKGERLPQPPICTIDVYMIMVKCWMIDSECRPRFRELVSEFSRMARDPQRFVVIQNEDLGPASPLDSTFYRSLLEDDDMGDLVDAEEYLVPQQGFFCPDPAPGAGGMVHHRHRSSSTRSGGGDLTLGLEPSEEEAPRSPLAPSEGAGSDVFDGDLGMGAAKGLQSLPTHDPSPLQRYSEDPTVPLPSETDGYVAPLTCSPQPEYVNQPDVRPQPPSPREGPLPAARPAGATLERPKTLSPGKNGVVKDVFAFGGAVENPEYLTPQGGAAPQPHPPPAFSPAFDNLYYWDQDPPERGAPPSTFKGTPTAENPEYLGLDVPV

IC50 (EGFR NPH) [nM] | IC50 (EGFR SVD) [nM] | IC50 (HER2 S310F) [nM] | IC50 (EGFR V3; Table A) [nM] | IC50 (EGFR wt; Table A) [nM] | IC50 (HER2 YVMA) [nM] | IC50 (EGFR G598V) [nM] | IC50 (EGFR V6) [nM] | IC50 (EGFR V3; Table B) [nM] | IC50 (EGFR wt; Table B) [nM] | IC50 (EGFR A289V) [nM] | IC50 (EGFR V2) [nM] | SMILES | median OS (mOS) (GBM tumors) [months] | median PFS (mPFS) (GBM tumors) [months]
50 to 100 | 100 to 500 | 50 to 100 | ≤ 50 | 50 to 100 | 100 to 500 |  |  |  |  |  |  | C=CC(=O)Nc1cc2c(Nc3cccc(Cl)c3F)ncnc2cc1C#CC1(C)CCN(C)C1 (stereo not drawn) [Compound 1, N-(4-((3-chloro-2-fluorophenyl)amino)-7-((1,3-dimethylpyrrolidin-3-yl)ethynyl)quinazolin-6-yl)acrylamide] |  | 
 |  |  |  |  |  |  |  |  |  |  |  | C#Cc1cccc(Nc2ncnc3cc(OCCOC)c(OCCOC)cc23)c1 [erlotinib] | 8.6 | 2.8
≤ 50 | ≤ 50 | ≤ 50 | ≤ 50 | > 500 | ≤ 50 |  |  |  |  |  |  | C=CC(=O)Nc1cc2c(Nc3ccc(OCc4ccccn4)c(Cl)c3)ncnc2cc1C#CC1(C)CCN(C)C1 (stereo not drawn) [Compound 12, N-(4-((3-chloro-4-(pyridin-2-ylmethoxy)phenyl)amino)-7-((1,3-dimethylpyrrolidin-3-yl)ethynyl)quinazolin-6-yl)acrylamide] |  | 
 |  | 100 to 500 | ≤ 50 | ≤ 50 | 100 to 500 | ≤ 10 | ≤ 10 | 10 to 25 | 25 to 50 | ≤ 10 | ≤ 10 | CN1C[C@H]2C[C@@]2(C#Cc2cc3ncnc(Nc4cccc(Cl)c4F)c3cc2NC(=O)/C=C/CN2CCOCC2)C1 [Compound 37, (E)-N-(4-((3-chloro-2-fluorophenyl)amino)-7-(((1R,5S)-3-methyl-3-azabicyclo[3.1.0]hexan-1-yl)ethynyl)quinazolin-6-yl)-4-morpholinobut-2-enamide] |  | 
